Results as given in publication PMC8060913, “The Calcium-Activated Chloride Channel TMEM16A is Inhibitied by Liquiritigenin” (Frontiers in Pharmacology, 2021).
Read-outs that look alike come from different tables or passages of the source. Values belong to the compound of their own block, whether it stands above or below them.

Assays:
Assay type in all cases: cell-based
[1] = target: T1, mouse TMEM16A (mTMEM16A, anoctamin 1) (Mus musculus, UniProt Q8BHY3); assay: whole-cell patch-clamp in transfected HEK293T cells, +[…] mV
T1 construct: gene Ano1
T1 sequence (Q8BHY3 1-960): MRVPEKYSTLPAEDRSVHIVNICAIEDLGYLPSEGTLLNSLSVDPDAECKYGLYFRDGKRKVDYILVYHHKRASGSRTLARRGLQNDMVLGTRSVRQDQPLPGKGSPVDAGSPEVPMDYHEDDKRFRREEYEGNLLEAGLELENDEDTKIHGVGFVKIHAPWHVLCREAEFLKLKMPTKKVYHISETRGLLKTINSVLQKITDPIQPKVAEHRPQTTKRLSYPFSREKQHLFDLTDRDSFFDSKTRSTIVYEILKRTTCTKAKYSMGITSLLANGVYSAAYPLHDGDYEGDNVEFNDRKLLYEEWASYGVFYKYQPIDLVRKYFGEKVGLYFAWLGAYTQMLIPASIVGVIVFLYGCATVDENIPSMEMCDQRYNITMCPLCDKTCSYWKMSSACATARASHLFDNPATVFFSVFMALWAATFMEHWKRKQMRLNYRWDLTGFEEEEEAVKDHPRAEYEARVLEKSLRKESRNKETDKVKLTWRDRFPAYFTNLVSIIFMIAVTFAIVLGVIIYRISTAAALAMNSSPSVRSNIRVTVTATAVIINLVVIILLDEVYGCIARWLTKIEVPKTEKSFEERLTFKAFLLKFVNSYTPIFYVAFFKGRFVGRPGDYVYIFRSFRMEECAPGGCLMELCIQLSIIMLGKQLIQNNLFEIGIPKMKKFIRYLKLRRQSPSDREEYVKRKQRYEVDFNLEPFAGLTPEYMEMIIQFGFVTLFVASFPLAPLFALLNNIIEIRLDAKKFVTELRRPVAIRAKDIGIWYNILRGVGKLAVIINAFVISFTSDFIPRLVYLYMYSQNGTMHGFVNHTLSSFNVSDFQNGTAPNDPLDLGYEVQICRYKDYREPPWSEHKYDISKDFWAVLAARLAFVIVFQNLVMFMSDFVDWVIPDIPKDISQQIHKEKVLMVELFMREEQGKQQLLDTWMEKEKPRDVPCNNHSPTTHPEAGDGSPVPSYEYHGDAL

[2] = target: T2, human TMEM16A (hTMEM16A, anoctamin 1) (Homo sapiens, UniProt Q5XXA6); assay: as above
T2 construct: gene ANO1; untagged complete CDS
T2 sequence (Q5XXA6 1-986): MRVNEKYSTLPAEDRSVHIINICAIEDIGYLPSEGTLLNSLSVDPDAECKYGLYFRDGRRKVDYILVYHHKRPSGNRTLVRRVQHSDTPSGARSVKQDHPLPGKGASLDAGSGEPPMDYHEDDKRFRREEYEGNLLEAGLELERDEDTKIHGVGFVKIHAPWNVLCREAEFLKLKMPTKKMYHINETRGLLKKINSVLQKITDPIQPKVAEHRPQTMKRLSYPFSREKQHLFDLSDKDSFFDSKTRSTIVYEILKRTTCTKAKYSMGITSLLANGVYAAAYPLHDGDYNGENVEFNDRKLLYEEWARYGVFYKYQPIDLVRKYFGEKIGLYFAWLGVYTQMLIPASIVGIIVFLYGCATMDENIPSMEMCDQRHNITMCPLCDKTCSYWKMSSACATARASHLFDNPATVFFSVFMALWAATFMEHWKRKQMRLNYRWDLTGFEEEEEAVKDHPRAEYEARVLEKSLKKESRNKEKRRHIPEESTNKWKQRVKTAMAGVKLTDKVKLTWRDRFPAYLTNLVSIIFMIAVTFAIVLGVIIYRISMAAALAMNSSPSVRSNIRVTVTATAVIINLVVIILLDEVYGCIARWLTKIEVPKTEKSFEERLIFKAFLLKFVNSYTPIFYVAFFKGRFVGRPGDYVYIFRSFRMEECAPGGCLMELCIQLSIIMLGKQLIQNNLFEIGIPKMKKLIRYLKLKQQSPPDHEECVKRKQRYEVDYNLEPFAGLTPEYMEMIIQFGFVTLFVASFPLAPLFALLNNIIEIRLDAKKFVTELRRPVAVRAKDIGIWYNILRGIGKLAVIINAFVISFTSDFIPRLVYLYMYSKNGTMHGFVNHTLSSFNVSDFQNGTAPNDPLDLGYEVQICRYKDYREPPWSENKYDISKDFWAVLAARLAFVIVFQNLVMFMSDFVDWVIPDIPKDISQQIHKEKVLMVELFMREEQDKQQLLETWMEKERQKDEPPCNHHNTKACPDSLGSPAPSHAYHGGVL

[3] = target: T2, human TMEM16A (hTMEM16A, anoctamin 1); assay: whole-cell patch-clamp in transfected HEK293T cells, % inhibition at […], +[…] mV; conditions: HEK-293T
[4] = target: T1, mouse TMEM16A (mTMEM16A, anoctamin 1); assay: as above; conditions: HEK-293T

Compound: O=C1C[C@@H](c2ccc(O)cc2)Oc2cc(O)ccc21 [liquiritigenin]
IC50 [1]: 21.3 µM
IC50 [2]: 12.9 µM

inhibition at 100 µM [3]: 43.5%
inhibition at 100 µM [4]: 56.8%
Compound: C[C@]12CC[C@@H]3c4ccc(O)cc4CC[C@H]3[C@@H]1C[C@@H](O)[C@@H]2O [E3, estriol]

IC50 ([1]; read-out: IC50): 178 µM
IC50 ([2]; read-out: IC50): 251 µM
Compound: O=C1c2ccc(O)cc2OCC1c1ccc(O)cc1 (stereo not drawn) [dihydrodaidzein]
